Consider six compounds from publication PMC9103439, “Cyclo(His-Pro) Exerts Protective Carbonyl Quenching Effects through Its Open Histidine Containing Dipeptides” (Nutrients, 2022).

Data set [1] concerns the target T1, human serum carnosinase (hCN1) (Homo sapiens, UniProt Q96KN2).
T1 construct: from tissue; host or cells: serum
T1 sequence (Q96KN2 26-507): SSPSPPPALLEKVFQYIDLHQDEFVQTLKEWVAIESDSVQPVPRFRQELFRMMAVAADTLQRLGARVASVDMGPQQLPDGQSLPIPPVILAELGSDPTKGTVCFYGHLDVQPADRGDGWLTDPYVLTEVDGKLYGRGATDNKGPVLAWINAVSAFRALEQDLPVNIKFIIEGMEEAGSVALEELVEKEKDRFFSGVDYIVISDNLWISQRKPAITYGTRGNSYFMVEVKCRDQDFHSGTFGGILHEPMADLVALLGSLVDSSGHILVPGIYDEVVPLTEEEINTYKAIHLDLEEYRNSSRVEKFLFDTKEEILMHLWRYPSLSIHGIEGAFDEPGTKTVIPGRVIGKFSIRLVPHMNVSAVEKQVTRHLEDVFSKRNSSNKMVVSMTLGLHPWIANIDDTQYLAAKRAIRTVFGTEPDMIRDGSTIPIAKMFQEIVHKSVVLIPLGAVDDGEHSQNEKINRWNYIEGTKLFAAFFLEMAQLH
In words: Inhibition effect of CHP on serum carnosinase (carnosine hydrolysis in serum). The data set is classed as biochemical. Conditions: serum incubated with equimolar carnosine and CHP; decrease not statistically significant. How it is done: (§1) Serum stability was measured as previously described. Briefly, analytes were spiked separately in pre-heated (37 °C) serum aliquots down to a final concentration of 5 µM. The residual concentration of analyte was measured at the beginning and after 5, 15, 30, 60 and 120 min by means of LC-MS. Prior to analyses, hydrolysis was blocked at the desired time points diluting with 9 volumes of acetonitrile at 4 °C to provide protein precipitation. The analyte residual concentration was then measured in the supernatants obtained upon centrifugation. The same method was also used to evaluate the inhibition effect of CHP by incubating serum samples with equimolar amounts of carnosine and CHP.

The nature of data set [2]: Serum stability (LC-MS, MRM). The data set is classed as in vitro ADME, human. Conditions: 37 °C; for half-life at 5 µM: human, read-out: Serum Stability t1/2. How it is done: as §1
Data set [3] can be described thus: Quenching activity towards HNE (residual HNE by HPLC-UV). Conditions: for HNE Quenching (%) 1 h: percentage of quenched HNE at 1 h; for HNE Quenching (%) 2 h: percentage of quenched HNE at 2 h; for HNE Quenching (%) 3 h: percentage of quenched HNE at 3 h. How it is done: The reactivity towards HNE was tested for each peptide separately, by monitoring within 3 h from the incubation the residual HNE via HPLC-UV, as previously reported. Minor modifications of the method were implemented. A Kinetex C18 column (25 mm × 2.10 mm, particle size 2.6 µm, pore size 100 Å, Phenomenex, Castel Maggiore, Italy) was used instead and the elution of residual HNE was provided at 40 °C by 300 µL/min flow rate of aqueous ammonium acetate (10 mM) containing 20% acetonitrile. For active compounds, the formation of HNE adduct was confirmed by mass spectrometry. Samples were diluted in ACN/H2O/formic acid, 50/50/0.1, v/v/v solution down to a suitable concentration and pumped at 5 µL/min directly into ESI capillary (Finnigan Ion Max, Thermo Fisher Scientific, Rodano, Italy) and 3.5 kV voltage, 270 °C capillary temperature, 35 V capillary voltage and 50 V tube lens were applied to ensure sample nebulization. Spectra were acquired in positive ion mode for 5 × 10^5 ions per scan, by using a LTQ-Orbitrap XL-ETD analyzer (Thermo Fisher Scientific, Rodano, Italy) operating in a 150–700 m/z scan range at a resolution of (FWHM at m/z 400).

On the set-up of data set [4]: method as in PMID 1424308. Conditions: cited from earlier work.

Counter-ions that a name gives are not always drawn.

Turning to `O=C1NC(Cc2cnc[nH]2)C(=O)N2CCCC12` (centres unmarked) [CHP, Cyclo(His-Pro)], the “retained carnosine hydrolytic activity” value in data set [1] amounted to 85 ± 5%. In data set [2] (5 µM), the “Serum Stability t1/2 (min)” value is listed as “Stable”. In data set [3], the “HNE Quenching (%) 1 h” value came out at 2.42 ± 0.71%, the “HNE Quenching (%) 2 h” value is listed as 5.46 ± 0.78% and the “HNE Quenching (%) 3 h” value worked out at 8.09 ± 0.77%.

On to `NC(Cc1cnc[nH]1)C(=O)N1CCCC1C(=O)O` (centres unmarked) [HisPro, His-Pro], for which the half-life at 5 µM in data set [2] was 3.08 min. Moreover, in data set [3], the “HNE Quenching (%) 1 h” value is on record as −0.33 ± 0.45%, the “HNE Quenching (%) 2 h” value is −0.26 ± 0.53% and the “HNE Quenching (%) 3 h” value is on record as 3.54 ± 1.66%.

Turning to `NCCC(=O)N[C@@H](Cc1cnc[nH]1)C(=O)O` [L-carnosine, reference compound], in data set [2], the half-life at 5 µM stood at 1.17 min. Moreover, in data set [3], the “HNE Quenching (%) 1 h” value amounted to 17.04 ± 6.17%, the “HNE Quenching (%) 2 h” value came to 29.05 ± 4.33% and the “HNE Quenching (%) 3 h” value came out at 40.40 ±3.73%.

Take `O=C(O)C(Cc1c[nH]cn1)NC(=O)C1CCCN1` [ProHis, L-Pro-L-His-OH dihydrochloride]: the half-life at 5 µM in data set [2] was determined as 33.4 min. In data set [3], the “HNE Quenching (%) 1 h” value was found to be 20.39 ± 1.14%, the “HNE Quenching (%) 2 h” value is 36.94 ± 0.80% and the “HNE Quenching (%) 3 h” value is 49.87 ± 1.06%.

For the compound `NC(=O)C(Cc1c[nH]cn1)NC(=O)C1CCCN1` [ProHis-NH2, L-Pro-L-His-NH2], the half-life at 5 µM in data set [2] was 128 min. Also, in data set [3], the “HNE Quenching (%) 1 h” value is on record as 17.08 ± 1.11%, the “HNE Quenching (%) 2 h” value was determined as 27.66 ± 0.58% and the “HNE Quenching (%) 3 h” value amounted to 36.29 ± 1.08%.

On to `NC(=O)[C@@H]1CCCN1C(=O)[C@H](Cc1cnc[nH]1)NC(=O)[C@@H]1CCC(=O)N1` [TRH, thyrotropin-releasing hormone, reference compound], for which the half-life at 5 µM in data set [2] was 24.4 min. Also, in data set [3], the “HNE Quenching (%) 1 h” value is given as 2.31 ± 6.72%, the “HNE Quenching (%) 2 h” value amounted to 4.16 ± 6.16% and the “HNE Quenching (%) 3 h” value was 6.17 ± 6.41%. Also, in data set [4], the half-life in vivo is reported as 6.5 min.
